Laboratory results published in patent US11331333B2, “Treatment of aberrant fibroblast proliferation” (Georg August Universitaet Goettingen Stiftung Oeffentlichen …, priority 2019, dated 2022).

Test system: EYA1A^tg mice challenged with UUO
Assay: Unilateral ureteral obstruction (UUO) kidney fibrosis in EYA1A^tg mice
Type: in vivo, mouse
Details: Na3VO4 8 mg/kg or caffeine 12.5 mg/kg i.p. once per day; EYA1Atg mice, UUO
Experimental: From 3 days before surgery, C57BL/6 (referred as wildtype) or transgenic mice overexpressing human splice variants EYA1A (rtTACMV;hEYA1A-pTreTight, referred to as EYA1A^tg) and EYA1C (rtTACMV;hEYA1C-pTreTight, referred to as EYA1C^tg) were treated with either vehicle buffer (glucose 5%) or DOX (2 mg/ml, Sigma, St. Louis, USA) within drinking water ad libidum and renewal every 2 days.
Mice were anesthetized with isoflurane inhalation (2-3%), analgesia was performed by subcutaneous injection of 0.1 mg/kg body weight per day Buprenorphine. The ureter was separated from the surrounding tissues and two ligatures were placed about 5 mm apart in upper two-thirds of the left ureter to obtain reliable obstruction. Mice were sacrificed 3, 7 or 10 days after ureteral obstruction for further analyses.
Mice were injected intraperitoneally with Na3VO4 (8 mg/kg i.p. once per day, Sigma, St. Louis, USA) or caffeine (12.5 mg/kg i.p. once per day, Sigma, St. Louis, USA) starting one day prior of surgery, control mice received equivalent volume of PBS or DMSO.
Mice were injected intraperitoneally with SCR7 (20 mg/kg i.p. every alternate day, Sigma, St. Louis, USA) starting one day prior of surgery, control mice received equivalent volume of DMSO.
The inventors obtained 25 nucleotide antisense morpholino sequences (Gene Tools, Philomath, USA). The in vivo morpholinos contain a covalently linked octaguanidine dendrimer as a delivery moiety to facilitate entry into cells in vivo. Mice were injected intraperitoneally with 12.5 mg/kg body weight in vivo morpholinos in saline at a final volume of 100 μL every other day starting two days prior of surgery. A control in vivo
Lentiviral pLenti-Sce1 was produced in 293T virus packaging cells after transfection using morpholino that targets a human β-globin intron mutation was used as standard control. In vivo morpholino sequences are those of SEQ ID NOs: 9 (EYA1A-VMO), 10 (53Bp1-VMO) and 16 (control).
Formalin-fixed, paraffin-embedded kidneys and hearts from mice, and HOPE-fixed, paraffin-embedded human specimens were sectioned at 3 μm, Masson's Trichrome Stain (MTS) was performed at the University Medicine Göttingen. For morphometric analysis of interstitial fibrosis in mice and human biopsies, we assessed the fibrotic area using cellSens (Olympus, Tokyo, Japan) software. Ten visual fields were selected randomly for each MTS stained section at 200× magnification and the relative interstitial fibrotic area was evaluated by using a 10 mm^2 graticule.
Formalin-fixed, paraffin-embedded kidney sections from mice as well as from HOPE-fixed, paraffin-embedded human specimens were deparaffinized in xylene and rehydrated in ethanol containing distilled water. For immunofluorescent staining, EYA1 isoform antisera or primary antibodies against αSMA (A5228, Sigma, St. Louis, USA), Collagen-1 (ab34710, Abcam Biochemicals, Cambridge, UK), γH2A.X^pS139 (ab2893, Abcam Biochemicals, Cambridge, UK), γH2A.X^pS139 (05-636, Merck Millipore, Billerica, UK), γH2A.X^pY142 (ab94602, Abcam Biochemicals, Cambridge, UK), p-Chk1^pS317 (12302P, Cell Signaling, Danvers, USA), p-Chk2^pT68 (2197S, Cell Signaling, Danvers, USA), Rpa1 (2267S, Cell Signaling, Danvers, USA), Rad51 (sc-8349, Santa Cruz Biotechnology, Dallas, USA), 53Bp1 (sc-22760, Santa Cruz Biotechnology, Dallas, USA), Xrcc4 (sc-8285, Santa Cruz Biotechnology, Dallas, USA) and GFP (MA5-15256, Thermo Fisher Scientific, Waltham, USA) were used, secondary antibodies were labeled with Alexa Fluor 488, 594 or 647 (Life Technologies, Carlsbad, USA). Renal basement membranes were stained with antibodies against Collagen-4 (1340-30, SouthernBiotech, Birmingham, USA). Nuclear staining was performed using 4′,6-diamidino-2-phenylindole (DAPI, Vector Laboratories, Burlingame, USA). Quantifications were performed per high power field at 400× magnification, representative confocal pictures using an LSM 780 confocal laser scanning microscope (Zeiss, Oberkochen, Germany) are shown.

| SMILES | impact of EYA1A overexpression on renal fibrogenesis | γH2A.X^pY142 dephosphorylation |
| --- | --- | --- |
| [Na+].[Na+].[Na+].[O]=[V]([O-])([O-])[O-] [Na3VO4, sodium orthovanadate] | reversed the enhancing impact | effectively blocked |
| Cn1c(=O)c2c(ncn2C)n(C)c1=O [caffeine] | reversed the enhancing impact | effectively blocked |
